These results are taken from PMC9104356, “Characterisation of a Novel Acetyl Xylan Esterase (BaAXE) Screened from the Gut Microbiota of the Common Black Slug (Arion ater)” (Molecules, 2022).

What is called Km is the concentration of substrate that gives half-maximal velocity.

This test concerns T1, BaAXE (Gene_id_40363).
T1 construct: full-length 654 bp PCR product (about 218 residues), pDEST42, C-terminal 6xHis, E. coli BL21(DE3), 27 kDa by SDS-PAGE; forward primer CACCATGAAACATGACCAC encodes N-terminus MKHDH
Kind of test: spectrophotometric 4-nitrophenol release at […] nm, nonlinear Michaelis-Menten fit. Format: biochemical. The settings on record: pH 8, 0.1-2 mM substrate; temperature not told for kinetics (standard assay 40 °C, 50 mM sodium phosphate, 150 mM NaCl, 0.01% Triton X-100).

Turning to `CC(=O)Oc1ccc([N+](=O)[O-])cc1` [4-NPA, 4-nitrophenyl acetate], the Km came out at 430 µM.
